“And” between values parts separate entries of the source, which are not always exact repeats. Identical values can stand only once. Like-named read-outs stand apart in the source and are kept apart here.
How the values were obtained:
[1] = target: T1, human KOR (GoB) (Homo sapiens, UniProt P41145, G319L); experiment: cell-based; details: HEK-293T
T1 construct: expressed in transfected cells; host or cells: HEK293T

[2] = target: T2, human KOR (GoB) (Homo sapiens, UniProt P41145, N326A); experiment: cell-based; details: HEK-293T
T2 construct: expressed in transfected cells; host or cells: HEK293T
T2 sequence (P41145 whole entry N326A): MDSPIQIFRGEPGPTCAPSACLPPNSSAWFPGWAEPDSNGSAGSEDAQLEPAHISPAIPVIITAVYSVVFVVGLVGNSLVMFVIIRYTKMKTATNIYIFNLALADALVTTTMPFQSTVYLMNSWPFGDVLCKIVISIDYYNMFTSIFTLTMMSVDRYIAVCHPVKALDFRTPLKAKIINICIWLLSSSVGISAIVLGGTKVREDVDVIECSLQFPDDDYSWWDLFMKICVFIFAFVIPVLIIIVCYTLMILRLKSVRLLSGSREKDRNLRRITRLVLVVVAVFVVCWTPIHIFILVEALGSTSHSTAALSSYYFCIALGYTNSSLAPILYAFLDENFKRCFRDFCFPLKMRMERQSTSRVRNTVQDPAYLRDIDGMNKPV

[3] = target: human KOR (Homo sapiens, UniProt P41145); experiment: cell-based; design: expressed in transfected cells; host or cells: HEK 293T (ATCC, CRL-3216); details: HEK-293T
Sequence of human KOR (P41145 whole entry): as the sequence (P41145 whole entry N326A) above, with A326N counted along it

[4] = target: T3, human KOR (Gustducin) (Homo sapiens, UniProt P41145, D266A); experiment: cell-based; details: HEK-293T
T3 construct: expressed in transfected cells; host or cells: HEK293T
T3 sequence (P41145 whole entry D266A): as the sequence (P41145 whole entry N326A) above, with D266A, A326N counted along it

[5] = target: T4, human KOR (Gustducin) (Homo sapiens, UniProt P41145, N141A); experiment: cell-based; details: HEK-293T
T4 construct: expressed in transfected cells; host or cells: HEK293T
T4 sequence (P41145 whole entry N141A): as the sequence (P41145 whole entry N326A) above, with N141A, A326N counted along it

[6] = target: T5, human KOR (Gustducin) (Homo sapiens, UniProt P41145, R271A); experiment: cell-based; details: HEK-293T
T5 construct: expressed in transfected cells; host or cells: HEK293T
T5 sequence (P41145 whole entry R271A): as the sequence (P41145 whole entry N326A) above, with R271A, A326N counted along it

[7] = target: T6, human KOR (Gustducin) (Homo sapiens, UniProt P41145, Y320L); experiment: cell-based; details: HEK-293T
T6 construct: expressed in transfected cells; host or cells: HEK293T
T6 sequence (P41145 whole entry Y320L): as the sequence (P41145 whole entry N326A) above, with Y320L, A326N counted along it

[8] = target: T7, human KOR (Gustducin) (Homo sapiens, UniProt P41145, D334A); experiment: cell-based; details: HEK-293T
T7 construct: expressed in transfected cells; host or cells: HEK293T
T7 sequence (P41145 whole entry D334A): as the sequence (P41145 whole entry N326A) above, with A326N, D334A counted along it

[9] = target: T8, human KOR (Gustducin) (Homo sapiens, UniProt P41145, D155A); experiment: cell-based; details: HEK-293T
T8 construct: expressed in transfected cells; host or cells: HEK293T
T8 sequence (P41145 whole entry D155A): as the sequence (P41145 whole entry N326A) above, with D155A, A326N counted along it

[10] = target: T9, human KOR (Gustducin) (Homo sapiens, UniProt P41145, R257A); experiment: cell-based; details: HEK-293T
T9 construct: expressed in transfected cells; host or cells: HEK293T
T9 sequence (P41145 whole entry R257A): as the sequence (P41145 whole entry N326A) above, with R257A, A326N counted along it

[11] = target: T10, human KOR (Gustducin) (Homo sapiens, UniProt P41145, F114L); experiment: cell-based; details: HEK-293T
T10 construct: expressed in transfected cells; host or cells: HEK293T
T10 sequence (P41145 whole entry F114L): as the sequence (P41145 whole entry N326A) above, with F114L, A326N counted along it

[12] = target: T11, human KOR (Gustducin) (Homo sapiens, UniProt P41145, L253A); experiment: cell-based; details: HEK-293T
T11 construct: expressed in transfected cells; host or cells: HEK293T
T11 sequence (P41145 whole entry L253A): as the sequence (P41145 whole entry N326A) above, with L253A, A326N counted along it

[13] = target: T12, human KOR (Gustducin) (Homo sapiens, UniProt P41145, N322A); experiment: cell-based; details: HEK-293T
T12 construct: expressed in transfected cells; host or cells: HEK293T
T12 sequence (P41145 whole entry N322A): as the sequence (P41145 whole entry N326A) above, with N322A, A326N counted along it

[14] = target: T13, human KOR (Gustducin) (Homo sapiens, UniProt P41145); experiment: cell-based
T13 construct: expressed in transfected cells; host or cells: HEK293T
T13 sequence (P41145 whole entry): as the sequence (P41145 whole entry N326A) above, with A326N counted along it

[15] = target: T14, human KOR (Gustducin) (Homo sapiens, UniProt P41145, D105A); experiment: cell-based; details: HEK-293T
T14 construct: expressed in transfected cells; host or cells: HEK293T
T14 sequence (P41145 whole entry D105A): as the sequence (P41145 whole entry N326A) above, with D105A, A326N counted along it

[16] = target: T15, human KOR (Gustducin) (Homo sapiens, UniProt P41145, G319L); experiment: cell-based; details: HEK-293T
T15 construct: expressed in transfected cells; host or cells: HEK293T
T15 sequence (P41145 whole entry G319L): as the sequence (P41145 whole entry N326A) above, with G319L, A326N counted along it

[17] = target: T16, human KOR (Gustducin) (Homo sapiens, UniProt P41145, F283A); experiment: cell-based; details: HEK-293T
T16 construct: expressed in transfected cells; host or cells: HEK293T
T16 sequence (P41145 whole entry F283A): as the sequence (P41145 whole entry N326A) above, with F283A, A326N counted along it

[18] = target: T17, human KOR (Gustducin) (Homo sapiens, UniProt P41145, R274A); experiment: cell-based; details: HEK-293T
T17 construct: expressed in transfected cells; host or cells: HEK293T
T17 sequence (P41145 whole entry R274A): as the sequence (P41145 whole entry N326A) above, with R274A, A326N counted along it

[19] = target: T18, human KOR (Gustducin) (Homo sapiens, UniProt P41145, T94V); experiment: cell-based; details: HEK-293T
T18 construct: expressed in transfected cells; host or cells: HEK293T
T18 sequence (P41145 whole entry T94V): as the sequence (P41145 whole entry N326A) above, with T94V, A326N counted along it

[20] = target: T19, human KOR (Gustducin) (Homo sapiens, UniProt P41145, N326A); experiment: cell-based; details: HEK-293T
T19 construct: expressed in transfected cells; host or cells: HEK293T
T19 sequence (P41145 whole entry N326A): as the sequence (P41145 whole entry N326A) above

[21] = target: T20, human KOR (Gustducin) (Homo sapiens, UniProt P41145, K227A); experiment: cell-based; details: HEK-293T
T20 construct: expressed in transfected cells; host or cells: HEK293T
T20 sequence (P41145 whole entry K227A): as the sequence (P41145 whole entry N326A) above, with K227A, A326N counted along it

[22] = target: T21, human KOR (Gustducin) (Homo sapiens, UniProt P41145, Q115N); experiment: cell-based; details: HEK-293T
T21 construct: expressed in transfected cells; host or cells: HEK293T
T21 sequence (P41145 whole entry Q115N): as the sequence (P41145 whole entry N326A) above, with Q115N, A326N counted along it

[23] = target: T22, human KOR (Gustducin) (Homo sapiens, UniProt P41145, K200A); experiment: cell-based; details: HEK-293T
T22 construct: expressed in transfected cells; host or cells: HEK293T
T22 sequence (P41145 whole entry K200A): as the sequence (P41145 whole entry N326A) above, with K200A, A326N counted along it

[24] = target: T23, human KOR (Gustducin) (Homo sapiens, UniProt P41145, R170A); experiment: cell-based; details: HEK-293T
T23 construct: expressed in transfected cells; host or cells: HEK293T
T23 sequence (P41145 whole entry R170A): as the sequence (P41145 whole entry N326A) above, with R170A, A326N counted along it

[25] = target: T24, human KOR (Gustducin) (Homo sapiens, UniProt P41145, E297A); experiment: cell-based; details: HEK-293T
T24 construct: expressed in transfected cells; host or cells: HEK293T
T24 sequence (P41145 whole entry E297A): as the sequence (P41145 whole entry N326A) above, with E297A, A326N counted along it

[26] = target: T25, human KOR (Gustducin) (Homo sapiens, UniProt P41145, Y139L); experiment: cell-based; details: HEK-293T
T25 construct: expressed in transfected cells; host or cells: HEK293T
T25 sequence (P41145 whole entry Y139L): as the sequence (P41145 whole entry N326A) above, with Y139L, A326N counted along it

[27] = target: KOR K227A (Homo sapiens, UniProt P41145, K227A); type: cell-based; design: TEV cleavage site (C); tTA transcription factor (C); expressed in transfected cells; host or cells: HTLA cells; details: Log [Drug]
Sequence of KOR K227A (P41145 whole entry K227A): as the sequence (P41145 whole entry N326A) above, with K227A, A326N counted along it
Sequence of KOR K227A (P32121 whole entry partner): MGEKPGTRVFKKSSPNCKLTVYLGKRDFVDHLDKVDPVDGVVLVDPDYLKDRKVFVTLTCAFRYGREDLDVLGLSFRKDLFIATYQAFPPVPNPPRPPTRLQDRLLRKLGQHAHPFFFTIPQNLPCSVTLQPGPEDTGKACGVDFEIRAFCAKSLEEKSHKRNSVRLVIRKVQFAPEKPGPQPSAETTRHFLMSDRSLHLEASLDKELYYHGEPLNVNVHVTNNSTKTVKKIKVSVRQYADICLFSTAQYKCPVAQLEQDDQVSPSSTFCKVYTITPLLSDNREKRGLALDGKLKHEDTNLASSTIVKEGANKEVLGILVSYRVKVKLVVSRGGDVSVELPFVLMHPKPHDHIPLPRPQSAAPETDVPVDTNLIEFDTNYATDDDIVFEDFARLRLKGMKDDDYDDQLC

[28] = target: T26, MOR (Homo sapiens, UniProt P35372); experiment: Radioligand competition binding (3H-Diprenorphine)
T26 construct: expressed in transfected cells; host or cells: HEK293
T26 sequence (P35372 whole entry): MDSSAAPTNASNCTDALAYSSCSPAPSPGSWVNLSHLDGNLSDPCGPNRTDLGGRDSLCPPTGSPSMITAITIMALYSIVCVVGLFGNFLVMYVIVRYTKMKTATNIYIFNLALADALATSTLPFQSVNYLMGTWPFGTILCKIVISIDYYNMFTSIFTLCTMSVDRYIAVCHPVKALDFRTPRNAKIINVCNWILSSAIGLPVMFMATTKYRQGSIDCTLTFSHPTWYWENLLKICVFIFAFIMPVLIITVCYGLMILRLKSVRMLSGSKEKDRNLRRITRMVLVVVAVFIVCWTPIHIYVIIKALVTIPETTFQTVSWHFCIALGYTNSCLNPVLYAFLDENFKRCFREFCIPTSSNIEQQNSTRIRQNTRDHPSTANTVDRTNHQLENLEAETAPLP

[29] = read-out: KOR WT_Gi response (Figure S4D)
[30] = read-out: cAMP response (Figure S4C)

T1 sequence (P41145 whole entry G319L): as the sequence (P41145 whole entry N326A) above, with G319L, A326N counted along it

Compound CN(C(=O)/C=C/c1ccoc1)[C@@H]1CC[C@@]2(O)[C@H]3Cc4ccc(O)c5c4[C@@]2(CCN3CC2CC2)[C@H]1O5 [Nalfurafine, nalfurafine] has an Emax [1] of 108%, an Emax [2] of 93.6% and an Emax [3] of 100 ± 2%. For the same compound, the activation at 1 pM [3, 29] was 34.6%, the activation at 3.162 pM [3, 29] was 50.4% and the activation at 10 pM [3, 29] was 75.7%. The activation at 31.62 pM [3, 29] was 89.3%, the activation at 0.0001 µM [3, 29] was 97.6% and the activation at 0.001 µM [3, 29] was 96.5%. For the same compound, the activation at 0.1 µM [3, 29] was 103%, the activation at 1 µM [3, 29] was 100% and the activation at […] [3, 29] was 94.1% and 99.5% and 96.9%. The activation at 1 pM ([3]; read-out: cAMP response) was 42.4%, the activation at 3.162 pM ([3]; read-out: cAMP response) was 56.3% and the activation at 10 pM ([3]; read-out: cAMP response) was 78.7%. For the same compound, the activation at 31.62 pM ([3]; read-out: cAMP response) was 90.8%, the activation at 0.0001 µM ([3]; read-out: cAMP response) was 98.1% and the activation at 0.001 µM ([3]; read-out: cAMP response) was 97.1%. For the same compound, the activation at 0.1 µM ([3]; read-out: cAMP response) was 103%, the activation at 1 µM ([3]; read-out: cAMP response) was 101% and the activation at […] ([3]; read-out: cAMP response) was 95% (2×) and 99.8% and 97.5%. It also gave an activation at 1 pM [3, 30] of 34.6%, an activation at 3.162 pM [3, 30] of 50.4% and an activation at 10 pM [3, 30] of 75.7%. For the same compound, the activation at 31.62 pM [3, 30] was 89.3%, the activation at 0.0001 µM [3, 30] was 97.6% and the activation at 0.001 µM [3, 30] was 96.5%. For the same compound, the activation at 0.1 µM [3, 30] was 103%, the activation at 1 µM [3, 30] was 100% and the activation at […] [3, 30] was 94.1% and 99.5% and 96.9%. The Emax [4] was 62.6%, the Emax [5] was 79.1% and the Emax [6] was 56.9%. For the same compound, the Emax [7] was 80%, the Emax [8] was 100% and the Emax [9] was 91.8%. For the same compound, the Emax [10] was 53.8%, the Emax [11] was 60.6% and the Emax [12] was 61.4%. It also gave an Emax [13] of 96.6%, an Emax% [14] of 65% and an Emax ([14]; HEK-293T) of 65.6%. For the same compound, the Emax [15] was 70.2%, the Emax [16] was 80.9% and the Emax [17] was 100%. For the same compound, the Emax [18] was 82%, the Emax [19] was 73.6% and the Emax [20] was 49.2%. The Emax [21] was 85.5%, the Emax [22] was 62.9% and the Emax [23] was 75.7%. It also gave an Emax [24] of 77.5%, an Emax [25] of 73.1% and an Emax [26] of 55.3%. For the same compound, the “KOR K227A_Arrestin response (Figure S4D)” value ([27]; M -6, replicate values) was 101.315 and 102.717, the “KOR K227A_Arrestin response (Figure S4D)” value ([27]; M -6.5, replicate values) was 105.822 and 93.8848 and 97.1199 and the “KOR K227A_Arrestin response (Figure S4D)” value ([27]; M -7, replicate values) was 91.3062 and 96.8492 and 89.7833. The “KOR K227A_Arrestin response (Figure S4D)” value ([27]; M -7.5, replicate values) was 70.8658 and 86.1016, the “KOR K227A_Arrestin response (Figure S4D)” value ([27]; M -8, replicate values) was 84.9439 and 77.9998 and the “KOR K227A_Arrestin response (Figure S4D)” value ([27]; M -8.5, replicate values) was 65.7403 and 77.6179 and 69.9994. The “KOR K227A_Arrestin response (Figure S4D)” value ([27]; M -9, replicate values) was 59.6373 and 67.8004 and 59.0282, the “KOR K227A_Arrestin response (Figure S4D)” value ([27]; M -9.5, replicate values) was 49.3052 and 47.5598 and 61.4935 and the “KOR K227A_Arrestin response (Figure S4D)” value ([27]; M -10, replicate values) was 39.6619 and 44.8012 and 31.3899. For the same compound, the “KOR K227A_Arrestin response (Figure S4D)” value ([27]; M -10.5, replicate values) was 20.4503 and 25.5006 and 21.705, the “KOR K227A_Arrestin response (Figure S4D)” value ([27]; M -11, replicate values) was 23.8027 and 10.0134 and 11.9765 and the “KOR K227A_Arrestin response (Figure S4D)” value ([27]; M -12, replicate values) was 12.7008 and 13.5043. The “KOR K227A_Arrestin response (Figure S4D)” value ([27]; M -12.5, replicate values) was 6.071 and 3.454 and 8.161, the “KOR K227A_Arrestin response (Figure S4D)” value ([27]; M -13, replicate values) was 5.581 and 8.377 and 4.789 and the “KOR K227A_Arrestin response (Figure S4D)” value ([27]; M -14, replicate values) was 0.5358 and 5.464 and 0.3918. For the same compound, the Ki [28] was 13.2 nM.
